Laboratory results published in ChEMBL document CHEMBL1862790, “Optimisation of fenarimol series for the treatment of Chagas disease”.

Key:
[1] = test system: Trypanosoma cruzi; experiment: microbe, parasite or virus in culture; format: functional, organism-based, Tulahuen LacZ, Clone C4; conditions: Trypanosoma cruzi, Tulahuen LacZ, Clone C4
[2] = DNDI: Cytotoxicity against L-6 rat myoblasts from skeletal muscle cells; conditions: L6 rat skeletal muscle myoblast cells
[3] = test system: Trypanosoma cruzi; experiment: microbe, parasite or virus in culture; format: functional, Tulahuen LacZ, Clone C4; conditions: Trypanosoma cruzi, Tulahuen LacZ, Clone C4

Compound | IC50 [1] [nM] | IC50 ([2]; IC50) [nM] | IC90 [3] [nM] | IC50 [2] [nM]
Fc1ccc(N2CCC(NC(c3cccnc3)c3ccc(Cl)cc3F)CC2)c(C(F)(F)F)c1 (stereo not given) | 32 | 58900 | 50 | –
CO/C=C(/C(=O)OC)c1ccccc1Oc1cc(Oc2ccccc2C#N)ncn1 [AZOXYSTROBIN] | 3260 | – | 8680 | 50300
N#Cc1cnc(N2CCC(NC(c3cccnc3)c3ccc(Cl)cc3F)CC2)s1 (stereo not given) | 21 | 55700 | 44.5 | –
Cc1cc(C(=O)NC2CCN(C(c3ccc(C(F)(F)F)cc3)c3cccnc3)CC2)n(C(C)(C)C)n1 (stereo not given) | 13.5 | > 100000 | 26.5 | –
Fc1cccc(F)c1N1CCC(NC(c2ccc(C(F)(F)F)cc2)c2cccnc2)CC1 (stereo not given) | 18 | 54200 | 54.5 | –
Cc1cc(C(=O)N2CCC(NC(c3ccc(C(F)(F)F)cc3)c3cccnc3)CC2)n(C)n1 (stereo not given) | 264 | > 100000 | 773 | –
Cc1cccc(C(O)(c2ccc(Cl)cc2)c2cncnc2)c1 (stereo not given) | 328 | 68400 | 5230 | –
COc1cncc(C(O)(c2ccc(C(F)(F)F)cc2)c2ccc(Cl)cc2F)c1 (stereo not given) | 122 | 67400 | 318 | –
OC(c1ccc(C(F)(F)F)cc1)(c1cncc(F)c1)c1ccc(Cl)cc1F (stereo not given) | 194 | 51400 | 422 | –
N#Cc1ccccc1OC1CCN(C(c2ccc(C(F)(F)F)cc2)c2cccnc2)CC1 (stereo not given) | 48 | 57800 | 90 | –
CC1(C)COC(c2cccc(C(O)(c3ccc(Cl)cc3)c3cncnc3)c2)=N1 (stereo not given) | 500 | > 100000 | 890 | –
Cc1ncsc1C(=O)N1CC(NC(c2ccc(C(F)(F)F)cc2)c2cccnc2)C1 (stereo not given) | 186 | > 100000 | 553 | –
CON=C(c1ccc(Cl)cc1)c1ccc(Cl)cc1 | > 10000 | > 100000 | 10000 | –
CC(C)(C)OC(=O)N1CC(CNC(c2ccc(C(F)(F)F)cc2)c2cccnc2)C1 (stereo not given) | 122 | > 100000 | 332 | –
O=C(NC1CCCC1)c1cccc(C(O)(c2ccc(Cl)cc2)c2cccnc2)c1 (stereo not given) | 150 | 60800 | 320 | –
CCOC(=O)NC1CCN(C(c2ccc(Cl)cc2)c2cccnc2)CC1 (stereo not given) | 18 | > 100000 | 86 | –
O=C(NC1CCN(C(c2cncnc2)c2ccc(Cl)cc2F)CC1)c1ccccc1F (stereo not given) | 17.5 | > 100000 | 95.5 | –
O=C(c1ccccc1)N1CCC(NC(c2ccc(Cl)cc2)c2cccnc2)CC1 (stereo not given) | 84 | > 100000 | 190 | –
CN(C)C(=O)N1CCN(C(c2ccc(Cl)cc2)c2cccnc2)CC1 (stereo not given) | 120 | > 100000 | 300 | –
Clc1ccc(C(NCc2ccccc2)c2cccnc2)cc1 (stereo not given) | 96 | > 100000 | 210 | –
CC(C)S(=O)(=O)NC(c1ccc(C(F)(F)F)cc1)c1cnccn1 (stereo not given) | > 1000 | > 100000 | > 1000 | –
OC(c1ccc(Cl)cc1)(c1cncnc1)c1ccc(Cl)cc1F (stereo not given) | 52 | 54100 | 450 | –
CC(C)N(C(=O)c1cccc(C(O)(c2ccc(Cl)cc2)c2cccnc2)c1)C(C)C (stereo not given) | 14 | 54700 | 56 | –
CS(=O)(=O)NC1CCN(C(c2cccnc2)c2ccc(Cl)cc2F)CC1 (stereo not given) | 83 | > 100000 | 364 | –
Cc1ncoc1C(=O)N1CCC(NC(c2ccc(C(F)(F)F)cc2)c2cccnc2)CC1 (stereo not given) | 140 | > 100000 | 540 | –
CC(C)S(=O)(=O)N1CCC(NC(c2ccc(C(F)(F)F)cc2)c2cnccn2)CC1 (stereo not given) | 220 | > 100000 | 570 | –
O/N=C(\c1ccc(Cl)cc1)c1ccccc1Cl | 46400 | 54900 | 93000 | –
Cc1nc(C)c(C(=O)NC2CCN(C(c3ccc(C(F)(F)F)cc3)c3cccnc3)CC2)s1 (stereo not given) | 18 | 55700 | 31 | –

Compound | IC50 [1] [nM] | IC50 ([2]; IC50) [nM] | IC90 [3] [nM] | IC50 [2] [nM]
OC(c1cccnc1)(c1cccc(C(F)(F)F)c1)c1ccccc1Cl (stereo not given) | 446 | – | 749 | 58000
CC(C)S(=O)(=O)N1CCN(C(c2ccc(Cl)cc2)c2cncnc2)CC1 (stereo not given) | 230 | > 100000 | 720 | –
CCCCc1ccc(C(O)(c2ccc(Cl)cc2)c2ccc(Cl)cc2)cn1 | > 1000 | 54700 | > 1000 | –
Cc1n[nH]c(C)c1C(=O)NC1CCN(C(c2ccc(C#N)cc2)c2cccnc2)CC1 (stereo not given) | 185 | > 100000 | 518 | –
O=C(C1CCCCC1)N1CCN(C(c2cncnc2)c2ccc(Cl)cc2F)CC1 (stereo not given) | 150 | > 100000 | 300 | –
COc1ccc(CN2CCC(NC(c3cccnc3)c3ccc(Cl)cc3F)CC2)cc1 (stereo not given) | 370 | 52000 | 4380 | –
Cc1noc(C)c1C(=O)N1CCC(CN(c2ccc(C(F)(F)F)cc2)c2cccnc2)CC1 | 86 | 72400 | > 100 | –
CCC(=O)NC1CCN(C(c2ccc(C(F)(F)F)cc2)c2cnccn2)CC1 (stereo not given) | 1040 | > 100000 | 7600 | –
N#Cc1ccc(C(O)(c2ccc(Cl)cc2)c2cccnc2)cc1 (stereo not given) | 59 | > 100000 | 160 | –
CNC(=O)c1cccc(C(O)(c2ccc(Cl)cc2)c2cccnc2)c1 (stereo not given) | 590 | > 100000 | 995 | –
COc1ccc(C(O)(c2cncnc2)C2CC2)cc1 (stereo not given) | 20900 | – | 62500 | > 100000
CCCC=C(c1ccc(Cl)cc1)c1cccnc1 | 75 | 79400 | 380 | –
CON=C(Cc1ccccc1)c1cccnc1 | > 1000 | > 100000 | > 1000 | –
OC(c1cccnc1)(c1cnc(Cl)nc1)c1ccc(Cl)cc1F (stereo not given) | 179 | > 100000 | 630 | –
O=S1(=O)CCCN1C1CCN(C(c2ccc(Cl)cc2)c2cccnc2)CC1 (stereo not given) | 17 | > 100000 | 100 | –
O=S(=O)(c1ccc(Cl)cc1)N1CCC(NC(c2ccc(C(F)(F)F)cc2)c2cnccn2)CC1 (stereo not given) | 330 | > 100000 | 910 | –
Cc1cc(C(=O)N2CCC(NC(c3ccc(C(F)(F)F)cc3)c3cccnc3)CC2)no1 (stereo not given) | 120 | > 100000 | 350 | –
CCNC(=O)N1CCN(C(c2cncnc2)c2ccc(Cl)cc2F)CC1 (stereo not given) | 290 | > 100000 | 770 | –
Fc1ccc(N2CCC(NC(c3cccnc3)c3ccc(Cl)cc3F)CC2)cc1F (stereo not given) | 14 | 34200 | 42 | –
CC(C)Oc1ccc(C(NC2CCN(C(=O)Nc3ccccc3)CC2)c2cccnc2)cc1 (stereo not given) | 72 | 72100 | 250 | –
O=C(c1cccc(C(O)(c2ccc(Cl)cc2)c2cccnc2)c1)N1CCC(O)CC1 (stereo not given) | 118 | > 100000 | 732 | –
OC(c1ccc(Cl)cc1)(c1cccnc1)c1ccc(Cl)cc1Cl (stereo not given) | 15 | – | 52.2 | 53100
CC(C)(C)OC(=O)NC1CCN(C(c2cccnc2)c2ccc(Cl)cc2F)CC1 (stereo not given) | 10 | 55100 | 46 | –
CCN1CCN(C(c2ccc(Cl)cc2)c2cccnc2)CC1 (stereo not given) | > 1000 | > 100000 | > 1000 | –
CCS(=O)(=O)N1CCC(NC(c2ccc(C(F)(F)F)cc2)c2cnccn2)CC1 (stereo not given) | 490 | > 100000 | 880 | –
CC(C)(C)OC(=O)N1CCC(CNC(c2ccc(C(F)(F)F)cc2)c2cnccn2)CC1 (stereo not given) | 76 | 73300 | 260 | –
O=C(NC1CCN(C(c2ccc(C(F)(F)F)cc2)c2cccnc2)CC1)c1ccccc1C(F)(F)F (stereo not given) | 6 | > 100000 | 10 | –
